2 compounds from patent US20030022921A1, “Stable pharmaceutical formulation comprising torsemide modification II” (priority 2001, published 2003) can be followed below.

Each structure is given as a SMILES string.

This data set is described as follows: Polymorphic content by XRPD in bulk torsemide modification II on storage. Format: physicochemical. Also noted: key to Polymorphic form detected (I or II): “I” is Torsemide Modification I; “II” is Torsemide Modification II. As to conditions: for Polymorph Content / Polymorph Content: amount of Torsemide Modification I / Polymorphic form detected (I or II): bulk. The text has this:
1. The present procedure is used for the detection and quantitative determination of the presence of torsemide modification I in tablets wherein the active ingredient is high purity torsemide modification II. The present procedure is also used for the detection and quantitative determination of torsemide modification I in bulk high purity torsemide modification II, which is to be used as the active ingredient in tablets. The present method is based on the unique x-ray powder diffraction pattern of torsemide modification I that is characterized by a strong peak at two-theta 5.7±0.2°, the presence of which indicates the presence of torsemide modification I in a sample of high purity torsemide modification II. 2.1 Instrument: Philips x-ray powder diffractometer. Goniometer model PW 1050/70, Cu-tube, curved graphite monochromator. 2.2 Sample holder: A standard aluminum sample holder with a rectangular cavity 20*15*0.3 mm inside it. Scanning range: 2θ=4° to at least 22° Step: 0.05° Step duration: 0.5 4.1 Gently grind a small amount of sample powder in an agate mortar with the pestle. 4.2 Fill the rectangular cavity on the sample holder with the powder.

The mark [1] stands for this setting: first storage column (condition not given), 1 week.
[2] abbreviates: storage condition not given, 1 month.
The mark [3] stands for this setting: storage condition not given, 2 months.
Where [4] appears, read: storage condition not given, 2 weeks.

Consider `Cc1cccc(Nc2ccncc2S(=O)(=O)NC(=O)NC(C)C)c1` [Bulk No. 851700200, 1-Isopropyl-3-[(4-m-toluidino-3-pyridyl)-sulfonyl]urea], for which the “Polymorph Content” value is, setting by setting: (first storage column (condition not given), 1 month) “I + II”; under setting [1], “II >> I”; (first storage column (condition not given), 2 months) “I + II”; (first storage column (condition not given), 2 weeks) “I + II”; (first storage column (condition not given), 3 months) “I > II”; (first storage column (condition not given), 4 months) “I + II”. Moreover, the “Polymorph Content” value under setting [2] was “II >> I”; the “Polymorph Content” value under setting [3] is “II >> I”; the “Polymorph Content” value under setting [4] is recorded as “II >> I”; the “Polymorph Content” value (storage condition not given, 3 months) is on record as “I + II”; the “Polymorph Content” value (storage condition not given, 4 months) is “I + II”; the “Polymorph Content” value (t = 0) was “II >>> I”. Moreover, the “Polymorph Content: amount of Torsemide Modification I” value runs as follows: under setting [1], ~0.4%; under setting [2], ~1%; under setting [3], ~6%; under setting [4], ~0.5%; (t = 0) < 0.3%. For the setting “listed as torsemide modification II that contains trace amounts of torsemide modification”, the “Polymorphic stability during storage under stress conditions” value is on record as “not stable during storage under stress condition for at least 3 months”.

Regarding `Cc1cccc(Nc2ccncc2S(=O)(=O)NC(=O)NC(C)C)c1` [Bulk Lot No. 851700100, 1-Isopropyl-3-[(4-m-toluidino-3-pyridyl)-sulfonyl]urea], the “Polymorphic form detected (I or II)” value is reported as “II” (storage 40° C., 75% RH, 1 month); “II” (storage 40° C., 75% RH, 2 months); “II” (storage 40° C., 75% RH, 2 weeks); “II” (storage 40° C., 75% RH, 3 months); “II” (storage 40° C., 75% RH, 4 months); “II” (storage 55° C., 1 month). In addition, the “Polymorphic form detected (I or II)” value by setting is: (storage 55° C., 1 week) “II”; (storage 55° C., 2 months) “II”; (storage 55° C., 2 weeks) “II”; (storage 55° C., 3 months) “II”; (storage 55° C., 4 months) “II”. For the setting “storage at 40° C. at 75% relative humidity for 3 months, tablet formulations or bulk active ingredient”, the “Rearrangement into different polymorphic forms of torsemide” value is “does not undergo any significant rearrangement”. Also, the “Polymorphic stability during storage under stress conditions” value (listed as high purity torsemide modification II) is on record as “stable during storage under stress conditions for at least 3 months”.
